The text below walks through data of US20090275557A1, “Novel Composition for Treatment of Diseases Related to Activated Lymphocytes” (Immune Control, Inc., priority 2008, published 2009).

This test concerns bovine type 2 collagen immunized rats. Briefly: Collagen-induced arthritis assay, IP injection protocol, ankle diameter. Format: in vivo, rat. The following applies: IP injection 10 mg/kg once per day, study days 1-3; observed on study days 2-4. As to the method:
Female Lewis rats (CR) weighing between 125-200 g were immunized with bovine type 2 collagen, 2 mg/ml in a 1:1 solution of 0.01 N acetic acid and Freund's incomplete adjuvant (“FIA”). A 0.1 ml portion of the collagen solution was injected id (intradermally) at three sites on the rat. Rats were immunized with the collagen solution on days 1 and 6 of the study. […] On day 9 (study day “0”), baseline ankle diameters were measured. On days 10-15 (study days 1-6), the rats were then treated, via oral gavage, with either 1, 5, or 25 mg/kg of one of ICI-1259 or ICI-1260, prepared as described below. Ankle diameter measurements were measured on each of days 10-16.
Compounds ICI-1259, ICI-1260, ICI-1505, and ICI-1506 were administered via IP injection to treat collagent-induced arthritis in a variation of the experiments described above. Under the protocol of the IP injection experiments, animal were immunized with Bovine Type 2 collagen as previously described. […] On day 9 (study day “0”), baseline ankle diameters were measured. On days 10-12 (study days 1-3), the rats were then treated once per day, via IP injection, with one of ICI-1259, ICI-1260, ICI-1505, or ICI-1506 at 10 mg/kg. Ankle diameter in the immunized rodents was measured on each of days 10-13 as well as on day 14. […] See FIG. 18 (ICI-1259, ICI-1260, and ICI-1505) and FIG. 19 (ICI-1506).
In a separate study, using the IP injection protocol described above, ICI-1259 and 1260 were each dosed at 2 mg/kg and 0.4 mg/kg.

For the molecule `CN(C)CCCN1CCC(CCCN2c3ccccc3Sc3ccc(C(F)(F)F)cc32)CC1` [ICI-1505, N,N-dimethyl-3-(4-(3-(2-(trifluoromethyl)-10H-phenothiazin-10-yl)propyl)piperidin-1-yl)propan-1-amine], the “reduction in ankle swelling (ankle diameter)” value is listed as “statistically significant results were observed”.

`FC(F)(F)c1ccc2c(c1)N(CCCC1CCN(CCCN3CCCCC3)CC1)c1ccccc1S2` [ICI-1506, 10-(3-(1-(3-(piperidin-1-yl)propyl)piperidin-4-yl)propyl)-2-(trifluoromethyl)-10H-phenothiazine]: the “reduction in ankle swelling (ankle diameter)” value was “statistically significant results were observed”.
